Experiments:
[1] = system: virus de l'herpès simplex du type 1 (HSV.1); test: Inhibition of viral lysis plaque formation (PFU) in infected VERO cells; format: cell-based; settings: in vitro, DNA virus
Description: (§1) Des cellules VERO (lignée de cellules "normales") ont été infectées par le virus de l'herpès simplex du type 1 (HSV.1) ou par le virus de la rougeole à une multiplicité d'infection d'une particule infectieuse par cellule. Les cellules infectées ont été traitées par GAH aux doses indiquées sur la Figure 1. L'inhibition observée, emprimée en logarithme d'inhibition de la formation de plages de lyse cellulaire par le virus (PFU-"Plage Forming Unit") par ml de milieu, semble apparaître brusquement après avoir dépassé une concentration "seuil" située autour de 600 lim. par litre de milieu cellulaire. Le fait que la concentration optimale soit la même pour les deux virus testés, qui, comme indiqué ci-dessus, sont très différents, est en faveur d'une action de la substance au niveau cellulaire, action capable d'éveiller un état de résistance envers les virus infectants.

[2] = system: virus de la rougeole; test: as above; format: cell-based; settings: in vitro, RNA virus
Description: as §1

[3] = system: cellules (infectées ou non); test: Toxicity for the cells (infected or not) in the antiviral experiments; format: cell-based
[4] = system: virus du sarcome de Rous (RSV, souche B77); test: Reverse transcriptase activity in culture medium and focus formation, infected chicken fibroblasts; format: cell-based, poulet
Description: Il a été également montré que le GAH provoque aussi une importante inhibition de la multiplication des virus appartenant à la famille des rétrovirus (virus à ARN possédant une activité dite de transcriptase inverse, c'est-à-dire une ADN polymé- rase-ARN dépendante). Ceci a été démontré avec le virus du sarcome de Rous (RSV, virus oncogène, sous-famille oncovirinae) et avec le virus visna (virus lytique, sous-famille lentivirinae à laquelle appartient aussi le H.I.V.). • 1 - Des fibroblastes de poulet, en passage secondaire, sont ensemencés et traités, ou non, par le GAH à diverses concentrations. Ensuite, les cellules sont infectées par le RSV (souche B77). Le milieu de culture des cellules infectées est recueilli à différents temps post- infection et l'activité transcriptase inverse a été mesurée, cette mesure étant considérée généralement comme un reflet de la libération des particules virales dans les milieux de culture. […] Il est intéressant de signaler que, comme dans le cas des hespesvirus, l'activité antivirable apparaît à la même dose de GAH capable de provoquer l'arrêt de la prolifération cellulaire, ce qui est en accord avec la notion d'une action du GAH agissant en premier lieu au niveau cellulaire.

[5] = system: virus Visna; test: Reverse transcriptase activity, infected sheep embryo fibroblasts; format: cell-based, mouton; settings: GAH present at the time of infection, versus untreated cells; Figure 1B
[6] = system: carcinome de tumeur mammaire (lignée MCF7); test: DNA synthesis (3H-thymidine incorporation) in tumour cells; format: cell-based, humain
Description: (§2) L'effet du GAH a été étudié sur diverses lignées cellulaires obtenues à partir de tumeurs humaines et fibroblastes de poumon foetal humain (MRC5).
(§3) - Ordonnées : incorporation de ^3H-thymidine (comptage de la radioactivité correspondante en coups par minute (CPM).

[7] = system: carcinome du colon (lignée HT29); test: as above; format: cell-based, humain
Description: as §2, §3

[8] = system: cellules de tumeurs de Burkitt; test: as above; format: cell-based, humain
Description: as §2, §3

[9] = system: llgnée de tumeur d' Ewing; test: as above; format: cell-based, humain
Description: as §2, §3

[10] = system: mélanome; test: as above; format: cell-based, humain
Description: as §2, §3

[11] = system: cellules de lymphome murin RBL5; test: as above; format: cell-based
[12] = system: leucémie L1 210; test: as above; format: cell-based, murin; settings: Figure 2
Description: as §2
- Abscisses : temps de contact des différentes cellules avec le le L-glutamique acide y monohydroxamate : 1-L1210 • 2 - BL60 • 3 - NterDau • 4-B16
as §3

[13] = system: cellules de mélanome; test: Survival of melanoma cells versus dose and contact time; format: cell-based
Description: Sur une lignée de mélanome prise comme exemple, on peut voir que l'effet inhibiteur est dépendant de la dose (Figure 3), mais également du temps de contact. Dès 2 heures de contact des cellules de mélanome avec 1,5 mM de GAH, il y a mort cellulaire, qui s'amplifie jusqu'à 72 heures de culture des cellules tumorales, puis les cellules échappent à cette inhibition (Figure 4). […] Ainsi, pour les cellules de mélanome, un contact de 30 heures avec 1,5 mM de GAH est nécessaire pour avoir une mort cellulaire complète à 72 heures, alors que 50 heures de contact sont nécessaires avec une concentration de drogue de 400 µM (Figure 5).
- Abscisses : temps de contact des cellules de mélanome avec différentes concentrations de GAH : • 400 µM; ○ 1 mM; . 1,5 mM - Ordonnées : pourcentage de survie des cellules de mélanome à 72 heures.

[14] = Growth, DNA synthesis and survival of normal MRC5 cells; format: cell-based, humain; settings: human; normal MRC5 cells, Figure 6; read-out: doses sans mort cellulaire
Description: as §2
(§4) La croissance des cellules MRC5 dans un milieu déprimé en glutamine est aussi arrêtée, avec, cependant, un décalage dans l'inhibition par rapport à l'effet du GAH. […] Il s'agit probablement de deux mécanismes d'action différents.
(§5) • - Abscisses : temps de culture des cellules MRC5 : 1. avec différentes conditions de culture • O témoin MRC5 milieu normal • milieu déprimé en glutamine • ? milieu normal avec D-glutamyl acide (GAH 2. après élimination des différentes drogues et addition • ? milieu normal MRC5 témoin • milieu avec glutamine 2mM • ? milieu normal • ? milieu GAH + glutamine 2mM • - Ordonnées : nombre de cellules vivantes.

[15] = system: cellules normales MRC5; test: as above; format: cell-based, humain
Description: as §2, §4, §5

[16] = system: leucémie L1 210; test: Survival of mice inoculated with L1 210 leukaemia; format: in vivo, souris DBA/2; settings: 5x10^5 cells IP; 1200 mg/kg/day days 1-4, 600 mg/kg/day days 8-10; Figure 8
Description: (§6) Compte tenu des résultats in vitro, l'activité anti-tumorale de GAH a été étudiée sur deux modèles tumoraux murins : leucémie L1 210 et mélanome B16.
Pour la leucémie L1 210, maintenue par passage intra-péritonéal chez la souris DBA/2, le nombre de cellules utilisées pour les essais thérapeutiques est de 5.10^5 cellules par souris.
(§7) Les résultats positifs qui ont été obtenus sont exprimés par le pourcentage d'augmentation de la survie, considérant comme significative une augmentation de 30%.
Courbe de survie des souris DBA/2-B6D2F1 inoculées avec L1 210 (5x10^5 cellules dans 0,5 ml IP) après traitement avec L-glutamique acide monohydroxamate : 1200 mg/kg dose/jour, les jours 1, 2, 3, 4; et 600 mg/kg dose/jour, les jours 8, 9, 10 (les groupes sont constitués de 8 souris.). - Abscisses : jours après l'inoculation de cellules tumorales - Ordonnées : pourcentage de souris vivantes.

[17] = system: mélanome B16; test: Survival of mice inoculated with B16 melanoma; format: in vivo, souris; settings: 10^6 cells IP; 1200 mg/kg/day days 1-4, 600 mg/kg/day days 8-11, 300 mg/kg/day days 16-19; Figure 9
Description: as §6
Pour le mélanome B16, maintenu par passage souscutanés successifs, la dose injectée par voie intra-péritonéale pour les essais thérapeutiques est de 10^6 cellules par souris.
as §7
Courbe de survie des souris C5b16 inoculées avec les cellules de mélanome B16 (10^6 cellules dans 0,5 ml IP)après traitement avec GAH : 1200 mg/kg dose/jour, les jours 1, 2, 3, 4; 600 mg/kg dose/jour, les jours 8, 9, 10, 11; et 300 mg/kg dose/jour, les jours 16, 17, 18, 19 (les groupes traités et non traités sont de 6 animaux). - Abscisses : jours après l'inoculation de cellules tumorales - Ordonnées : pourcentage de souris vivantes

[18] = system: colonies métas- tasiantes du mélanome B 16; test: Cytolytic effect on cells isolated from metastases in vitro; format: cell-based

N[C@@H](CCC(=O)NO)C(=O)O [GAH, L-glutamique acide y monohydroxamate]
inhibition du virus [1]: inhibition très significative
inhibition du virus [2]: inhibition très significative
toxicité pour les cellules [3]: faible taux, voire l'absence, de toxicité
activité transcriptase inverse dans le milieu de culture ([4]; GAH 1mM present at the time of infection, chicken fibroblasts, Figure 1A): indétectable
formation de foyers de cellules transformées par le RSV ([4]; GAH-treated cultures, untreated controls show foci after three days): aucune formation de foyers
activité transcriptase inverse [5]: diminution considérable
effet sur la synthèse de l'ADN [6]: effet inhibiteur total
effet sur la synthèse de l'ADN [7]: effet inhibiteur total
effet sur la synthèse de l'ADN [8]: effet inhibiteur total
effet sur la synthèse de l'ADN [9]: effet inhibiteur total
effet sur la synthèse de l'ADN [10]: effet inhibiteur total
effet sur la synthèse de l'ADN [11]: effet inhibiteur total
effet sur la synthèse de l'ADN [12]: effet inhibiteur total
temps de contact nécessaire pour une mort cellulaire complète à 72 heures ([13]; 400 µM GAH (Figure 5)): 50 heures
temps de contact nécessaire pour une mort cellulaire complète à 72 heures ([13]; 1,5 mM GAH (Figure 5)): 30 heures
temps de contact à partir duquel il y a mort cellulaire ([13]; 1,5 mM GAH, death from this contact time on, increasing up to 72 h of culture (Figure 4)): 2 heures
MNTC [14]: ≤ 800 µM
synthèse de l'ADN des cellules normales MRC5 [15]: arrêt de synthèse de l'ADN
réversion de la croissance par addition de glutamine ([15]; GAH-treated MRC5 cells, glutamine 2mM added (Figure 7)): ne reverse pas
effet sur les cellules normales ([15]; reversible after removal of the drug): effet cytostatique
activité antitumorale (augmentation de la survie) [16]: activité antitumorale
activité antitumorale (augmentation de la survie) [17]: activité antitumorale
effet sur des cellules isolées de métastases [18]: effet cytolytique
